Source: Sander's compilation of Henry's law constants (doi:10.1021/jf60162a025)

Experiment: Henry solubility constant Hcp at 298.15 K (mol/(m3 Pa))
Details: reference: Buttery et al. (1969)

Compound	Henry solubility constant Hcp
CCCCCCCCO [1-octanol]	0.4
CCC(=O)OC [methyl propanoate]	0.057
CCCCCCCC=O [octanal]	0.019
CCCCCCCCCC(C)=O [2-undecanone]	0.016
CCCCCCCC(C)=O [2-nonanone]	0.027
CCCCCC(=O)OC [methyl hexanoate]	0.027
CCCCCCO [1-hexanol]	0.58
CCCCC(=O)OC [methyl pentanoate]	0.031
CCCCC=O [pentanal]	0.067
CCCCCCC=O [heptanal]	0.037
COC(C)=O [methyl ethanoate]	0.086
CCCCCCCC(=O)OC [methyl octanoate]	0.013
CCCC=O [butanal]	0.086
CCCCCC(C)=O [2-heptanone]	0.068
CCCCCCC(C)=O [2-octanone]	0.052
CC(C)=O [propanone]	0.25
CCCC(C)=O [2-pentanone]	0.16
CCCCCCCCC=O [nonanal]	0.013
CCCC(=O)OC [methyl butanoate]	0.048
